Data: paper PMC9095466 (Nature, 2022)
Where “and” joins values, the source holds several entries; their conditions need not be identical. Identical values can stand only once. Counter-ions that a name gives are not always drawn. Like-named read-outs stand apart in the source and are kept apart here.

What was measured:
Recombinant human DESC1 = biological target: T1, Recombinant human DESC1 (Homo sapiens, UniProt Q9UL52); experiment: Protease selectivity, Ki on recombinant protease; format: biochemical
T1 construct: made in house
T1 sequence (Q9UL52 1-423): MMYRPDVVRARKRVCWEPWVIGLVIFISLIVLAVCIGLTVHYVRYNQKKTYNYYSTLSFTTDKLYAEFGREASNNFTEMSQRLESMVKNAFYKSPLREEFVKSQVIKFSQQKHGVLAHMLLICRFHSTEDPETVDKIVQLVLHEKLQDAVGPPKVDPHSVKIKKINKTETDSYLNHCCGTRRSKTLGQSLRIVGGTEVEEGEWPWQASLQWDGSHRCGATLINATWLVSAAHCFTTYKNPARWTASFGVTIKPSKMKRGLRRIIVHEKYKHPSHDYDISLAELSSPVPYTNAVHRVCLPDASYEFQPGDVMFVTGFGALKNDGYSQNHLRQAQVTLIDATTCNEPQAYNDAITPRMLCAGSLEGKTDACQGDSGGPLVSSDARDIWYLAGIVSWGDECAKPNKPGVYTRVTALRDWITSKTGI

Vero E6 cells = experiment: Cytotoxicity assay (Cell Titer-Glo 2.0) in Vero E6 cells; format: cell-based; conditions: 10 μM compound, 24 h, relative to vehicle (DMSO 0.01%); single experiments N1-N4; 10 µM
Procedure: Calu-3 and Vero E6 cells (2500 or 10,000 cells for samples, 80–20,000 cells for standard curve) were seeded in 96-well plates. Following a 24-h incubation at 37 °C, 5% CO2, cells were washed with D-PBS and compounds added (10 µM) for an additional 24-h incubation. Cellular viability was assessed using Cell Titer-Glo 2.0 Cell Viability Assay (Promega) according to the manufacturer’s instructions. The number of viable cells was extrapolated using the standard curve. Cellular viability in Vero E6 cells was expressed relative (%) to vehicle-treated cells. Data are from four independent experiments (mean ± s.d.).

SARS-CoV-2 [1] = system: SARS-CoV-2; design: method as in PMID 33903855; conditions: hospitalized patients with COVID-19; cited from earlier work
[2] = biological target: T2, Recombinant human matriptase (Homo sapiens, UniProt Q9Y5Y6); experiment: Protease selectivity, Ki on recombinant protease; format: biochemical
T2 construct: made in house
T2 sequence (Q9Y5Y6 1-855): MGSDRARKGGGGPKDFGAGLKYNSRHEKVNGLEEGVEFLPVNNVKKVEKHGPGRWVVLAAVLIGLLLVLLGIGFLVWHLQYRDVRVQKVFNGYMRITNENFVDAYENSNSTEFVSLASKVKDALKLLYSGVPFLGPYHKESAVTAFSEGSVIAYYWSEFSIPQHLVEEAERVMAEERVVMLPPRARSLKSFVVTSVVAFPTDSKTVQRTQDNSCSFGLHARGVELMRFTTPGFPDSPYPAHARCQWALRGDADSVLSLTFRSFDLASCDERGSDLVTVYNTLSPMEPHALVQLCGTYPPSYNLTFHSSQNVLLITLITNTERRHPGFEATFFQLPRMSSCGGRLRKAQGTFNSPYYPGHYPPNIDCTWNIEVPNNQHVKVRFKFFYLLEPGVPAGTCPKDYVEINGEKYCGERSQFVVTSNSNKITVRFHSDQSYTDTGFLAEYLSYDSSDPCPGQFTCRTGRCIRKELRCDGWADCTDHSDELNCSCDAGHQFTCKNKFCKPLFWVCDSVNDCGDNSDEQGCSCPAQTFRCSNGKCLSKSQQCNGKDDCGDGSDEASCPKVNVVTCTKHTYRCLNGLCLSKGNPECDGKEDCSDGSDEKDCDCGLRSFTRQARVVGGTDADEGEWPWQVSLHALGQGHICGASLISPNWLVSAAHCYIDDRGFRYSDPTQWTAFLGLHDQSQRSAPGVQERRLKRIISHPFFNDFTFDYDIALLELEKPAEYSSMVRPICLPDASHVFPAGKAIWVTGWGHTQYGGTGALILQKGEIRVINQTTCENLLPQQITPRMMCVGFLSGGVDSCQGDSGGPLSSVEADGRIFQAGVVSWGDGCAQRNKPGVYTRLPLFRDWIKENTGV

human TMPRSS2 = human TMPRSS2 (Homo sapiens, UniProt O15393); experiment: cell-based
SARS-CoV-2 (VIDO) = format: cell-based; design: plaque assay titre, Figure 2c: unit not given beside the values; conditions: for reduction of viral titre (plaque assay): supernatant of infected Calu-3 cells, vs DMSO-treated infected control; for plaque assay titre, Figure 2c: replicate columns, listed as Cm
SARS-CoV-2 [3] = system: SARS-CoV-2; design: method as in PMID 32142651, PMID 33844653; conditions: adenovirus hACE2 model; cited from earlier work
[4] = system: SARS-CoV-2 lineage B strain (VIDO); experiment: microbe, parasite or virus in culture; format: cell-based

Chain of human TMPRSS2 (O15393 whole entry): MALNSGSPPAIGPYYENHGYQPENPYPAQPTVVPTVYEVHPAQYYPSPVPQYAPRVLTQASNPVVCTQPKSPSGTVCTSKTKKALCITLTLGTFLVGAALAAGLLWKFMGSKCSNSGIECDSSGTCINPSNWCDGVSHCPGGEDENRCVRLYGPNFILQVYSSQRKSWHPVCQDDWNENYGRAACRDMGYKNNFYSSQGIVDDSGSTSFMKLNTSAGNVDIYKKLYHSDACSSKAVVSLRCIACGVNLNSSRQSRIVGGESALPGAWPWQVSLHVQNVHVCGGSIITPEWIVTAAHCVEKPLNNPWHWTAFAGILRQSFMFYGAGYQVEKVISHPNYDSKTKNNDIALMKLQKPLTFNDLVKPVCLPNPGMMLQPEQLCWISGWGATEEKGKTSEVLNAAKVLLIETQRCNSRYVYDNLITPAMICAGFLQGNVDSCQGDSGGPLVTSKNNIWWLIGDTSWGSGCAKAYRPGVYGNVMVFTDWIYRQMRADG

CN(C)C(=O)COC(=O)Cc1ccc(OC(=O)c2ccc(NC(=N)N)cc2)cc1 [Camostat mesylate, reference compound]
Ki (Recombinant human DESC1; mean ± s.d., max concentration 10 µM, read-out: Ki DESC1): 5.8 ± 3.4 nM
Ki (Recombinant human DESC1; single experiments N1-N3, Figure 1D, read-out: Individual Ki, Desc1): 7.88 nM and 7.73 nM and 1.85 nM
% Viability of Vero E6 cells (Vero E6 cells): 115.453% and 94.4731% and 96.0284% and 136.615%
effect on the time to recovery and incidence of death (SARS-CoV-2 [1]): no effect
Ki ([2]; mean ± s.d., max concentration 10 µM, read-out: Ki Matriptase): 5.6 ± 1 nM
Ki ([2]; single experiments N1-N3, Figure 1D, read-out: Individual Ki, Matriptase): 6.79 nM and 5.15 nM and 4.98 nM
TMPRSS2 activity (%) (human TMPRSS2; Figure 1B, single experiments N1-N3, listed as Cm): 51.0758% and 41.2255% and 43.3144%
inhibition at 0.01 µM (human TMPRSS2; Vero C1008, 10 nM compound, 24 h, vs untreated/vehicle TMPRSS2-expressing Vero E6 cells, read-out: inhibition of TMPRSS2 activity (reduction of substrate proteolysis)): 56%
reduction of viral titre (plaque assay) (SARS-CoV-2 (VIDO); 40 nM): approximately half-log
plaque assay titre, Figure 2c (SARS-CoV-2 (VIDO); 40 nM): 1000 (6×) and 11000 (2×) and 20000 and 10000 (2×) and 80000 and 330000 and 30000 and 170000
reduction of viral titre (plaque assay) (SARS-CoV-2 (VIDO); 200 nM): approximately 1.5 log
plaque assay titre, Figure 2c (SARS-CoV-2 (VIDO); 200 nM): 1000 (9×) and 40000 and 10000 (3×) and 130000 and 30000 and 20000
protection against infection (SARS-CoV-2 [3]): no significant protection against infection was observed
Nucleocapsid ([4]; Figure 2a, two replicates, DMSO control about 91-94, listed as Cm): 8.612 and 24.2399
dsRNA ([4]; Figure 2a, two replicates, DMSO control about 93-95, listed as Cm): 17.4079 and 31.7604
EC50 ([4]; Severe acute respiratory syndrome coronavirus 2, Calu-3, read-out: SARS-CoV-2 VIDO Nucleocapsid EC50 ± SE): 10.6 ± 8.4 nM
inhibition at 0.1 µM ([4]; Severe acute respiratory syndrome coronavirus 2, Calu-3, read-out: inhibition of SARS-CoV-2 infection): > 83%
Figure 2b dose-response, Mean ([4]; log [C] (nM) 0.20412): 84.468
Figure 2b dose-response, Mean ([4]; log [C] (nM) 0.90309): 76.973
Figure 2b dose-response, Mean ([4]; log [C] (nM) 1.60206): 24.9288
Figure 2b dose-response, Mean ([4]; log [C] (nM) 2.30103): 0.8428
Figure 2b dose-response, Mean ([4]; log [C] (nM) 3): 0.2267
Figure 2b dose-response, Mean ([4]; log [C] (nM) -0.49485): 80.5882
Figure 2b dose-response, Mean ([4]; log [C] (nM) -1.19382): 94.4767
